In patent publication US10987359B2, “Oxadiazepinone derivatives and methods of treating hepatitis B infections” (priority 2016, dated 2021):

Test system: HBV
Assay: HBV replication inhibition assay (BDNA assay) in HepG2.2.15 cells
Type: cell-based
Details: HBV replication assay (BDNA assay), HepG2.2.15 cells; read-out: DNA EC50
Description: HBV replication inhibition by the disclosed compounds were determined in cells infected or transfected with HBV or cells with stably integrated HBV, such as HepG2.2.15 cells (Sells et al. 1987). In this example, HepG2.2.15 cells were maintained in cell culture medium containing 10% fetal bovine serum (FBS), Geneticin, L-glutamine, penicillin and streptomycin. HepG2.2.15 cells were seeded in 96-well plates at a density of 40,000 cells/well and were treated with serially diluted compounds at a final DMSO concentration of 0.5% either alone or in combination by adding drugs in a checker box format. Cells were incubated with compounds for three days, after which medium was removed and fresh medium containing compounds was added to cells and incubated for another three days. At day 6, supernatant was removed and treated with DNase at 37° C. for 60 minutes, followed by enzyme inactivation at 75° C. for 15 minutes. Encapsidated HBV DNA was released from the virions and covalently linked HBV polymerase by incubating in lysis buffer (Affymetrix QS0010) containing 2.5 μg proteinase K at 50° C. for 40 minutes. HBV DNA was denatured by addition of 0.2 M NaOH and detected using a branched DNA (BDNA) QuantiGene assay kit according to manufacturer recommendation (Affymetrix). HBV DNA levels were also quantified using qPCR, based on amplification of encapsidated HBV DNA extraction with QuickExtraction Solution (Epicentre Biotechnologies) and amplification of HBV DNA using HBV specific PCR probes that can hybridize to HBV DNA and a fluorescently labeled probe for quantitation. In addition, cell viability of HepG2.2.15 cells incubated with test compounds alone or in combination was determined by using CellTitre-Glo reagent according to the manufacturer protocol (Promega). The mean background signal from wells containing only culture medium was subtracted from all other samples, and percent inhibition at each compound concentration was calculated by normalizing to signals from HepG2.2.15 cells treated with 0.5% DMSO using equation E1. % inhibition=(DMSOave−Xi)/DMSOave×100% E1: […]
where DMSOave is the mean signal calculated from the wells that were treated with DMSO control (0% inhibition control) and Xi is the signal measured from the individual wells. EC50 values, effective concentrations that achieved 50% inhibitory effect, were determined by non-linear fitting using Graphpad Prism software (San Diego, Calif.) and equation E2: Y=Y min+(Y max−Y min)/(1+10(Log EC50−X)×HillSlope) E2: […]
where Y represents percent inhibition values and X represents the logarithm of compound concentrations.
Selected disclosed compounds were assayed in the HBV replication assay (BDNA assay), as described above, and a representative group of these active compounds is shown in Table 7. […] In Table 7, “A” represents 1<EC50≤100; “B” represents 100<EC50≤500; “C” represents 500<EC50≤1000; and “D” represents EC50>1000.

First: C[C@@H]1Cc2nn3c(c2CN1C(=O)Nc1ccc(F)c(Br)c1)C(=O)N(C)OC(CN(C)C)C3 (stereo in doubt) [Compound 094_D2, (4R*,9R)—N-(3-bromo-4-fluorophenyl)-4-((dimethylamino)methyl)-2,9-dimethyl-1-oxo-1,4,5,8,9,11-hexahydropyrido[4′,3′:3,4]pyrazolo[5,1-d][1,2,5]oxadiazepine-10(2H)-carboxamide]
Second: C[C@@H]1Cc2nn3c(c2CN1C(=O)Nc1ccnc(Br)c1F)C(=O)N(C)OC(CN(C)C)C3 (stereo in doubt) [Compound 095_D2, (4R*,9R)—N-(2-bromo-3-fluoropyridin-4-yl)-4-((dimethylamino)methyl)-2,9-dimethyl-1-oxo-1,4,5,8,9,11-hexahydropyrido[4′,3′:3,4]pyrazolo[5,1-d][1,2,5]oxadiazepine-10(2H)-carboxamide]
The EC50 of the first is lower: 1 to 100 nM for the first, 100 to 500 nM for the second.

First: C[C@@H]1Cc2nn3c(c2CN1C(=O)Nc1ccnc(Br)c1F)C(=O)N(C)OC(COCC(F)F)C3 (stereo in doubt) [Compound 123_D2, (4R*,9R)—N-(2-bromo-3-fluoropyridin-4-yl)-4-((2,2-difluoroethoxy)methyl)-2,9-dimethyl-1-oxo-1,4,5,8,9,11-hexahydropyrido[4′,3′:3,4]pyrazolo[5,1-d][1,2,5]oxadiazepine-10(2H)-carboxamide]
Second: C[C@@H]1Cc2nn3c(c2CN1C(=O)Nc1cc(Cl)c(F)cc1F)C(=O)N(C)OC(C(=O)N(C)CC(F)F)C3 (stereo in doubt) [Compound 154_D1, (4S*,9R)—N10-(5-chloro-2,4-difluorophenyl)-N4-(2,2-difluoroethyl)-N4,2,9-trimethyl-1-oxo-1,4,5,8,9,11-hexahydropyrido[4′,3′:3,4]pyrazolo[5,1-d][1,2,5]oxadiazepine-4,10(2H)-dicarboxamide]
The EC50 of the first is lower: 1 to 100 nM for the first, 500 to 1000 nM for the second. The first is the more potent here.

`CNC(=O)C1Cn2nc3c(c2C(=O)N(C)O1)CN(C(=O)Nc1cc(Cl)c(F)cc1F)[C@H](C)C3` (stereo in doubt) [Compound 111_D1, (4S*,9R)—N10-(5-chloro-2,4-difluorophenyl)-N4,2,9-trimethyl-1-oxo-1,4,5,8,9,11-hexahydropyrido[4′,3′:3,4]pyrazolo[5,1-d][1,2,5]oxadiazepine-4,10(2H)-dicarboxamide] was tested, and the EC50 was over 1000 nM.

Same assay, conditions: Hepatitis B virus, HepG2.2.15, HBV replication assay (BDNA assay), HepG2.2.15 cells; read-out: DNA EC50

`CCCOCC1Cn2nc3c(c2C(=O)N(C)O1)CN(C(=O)Nc1ccc(F)c(Cl)c1)CC3` (centres unmarked) [Compound 103, N-(3-chloro-4-fluoro-phenyl)-2-methyl-1-oxo-4-(propoxymethyl)-5,8,9,11-tetrahydro-4H-pyrido[2,3]pyrazolo[2,4-d][1,2,5]oxadiazepine-10-carboxamide] and `CCOCC1Cn2nc3c(c2C(=O)N(C)O1)CN(C(=O)Nc1ccc(F)c(Cl)c1)CC3` (centres unmarked) [Compound 101, N-(3-chloro-4-fluoro-phenyl)-4-(ethoxymethyl)-2-methyl-1-oxo-5,8,9,11-tetrahydro-4H-pyrido[2,3]pyrazolo[2,4-d][1,2,5]oxadiazepine-10-carboxamide] fall in the same range of EC50: 1 to 100 nM for the first, 1 to 100 nM for the second.

`CN1OC(COC(=O)C(C)(C)C)Cn2nc3c(c2C1=O)CN(C(=O)Nc1ccc(F)c(Cl)c1)CC3` (centres unmarked) [Compound 055, (10-((3-chloro-4-fluorophenyl)carbamoyl)-2-methyl-1-oxo-1,2,4,5,8,9,10,11-octahydropyrido[4′,3′:3,4]pyrazolo[5,1-d][1,2,5]oxadiazepin-4-yl)methyl pivalate] and `CC(C)OC(=O)OCC1Cn2nc3c(c2C(=O)N(C)O1)CN(C(=O)Nc1ccc(F)c(Cl)c1)CC3` (centres unmarked) [Compound 053, (10-((3-chloro-4-fluorophenyl)carbamoyl)-2-methyl-1-oxo-1,2,4,5,8,9,10,11-octahydropyrido[4′,3′:3,4]pyrazolo[5,1-d][1,2,5]oxadiazepin-4-yl)methyl isopropyl carbonate] fall in the same range of EC50: 1 to 100 nM for the first, 1 to 100 nM for the second.

`CN1OC(CNC(=O)OC2CC2)Cn2nc3c(c2C1=O)CN(C(=O)Nc1ccc(F)c(Cl)c1)CC3` (centres unmarked) [Compound 203, cyclopropyl ((10-((3-chloro-4-fluorophenyl)carbamoyl)-2-methyl-1-oxo-1,2,4,5,8,9,10,11-octahydropyrido[4′,3′:3,4]pyrazolo[5,1-d][1,2,5]oxadiazepin-4-yl)methyl)carbamate] and `CCOC(=O)OCC1Cn2nc3c(c2C(=O)N(C)O1)CN(C(=O)Nc1ccc(F)c(Cl)c1)CC3` (centres unmarked) [Compound 056, (10-((3-chloro-4-fluorophenyl)carbamoyl)-2-methyl-1-oxo-1,2,4,5,8,9,10,11-octahydropyrido[4′,3′:3,4]pyrazolo[5,1-d][1,2,5]oxadiazepin-4-yl)methyl ethyl carbonate] fall in the same range of EC50: 1 to 100 nM for the first, 1 to 100 nM for the second.

First: CN1NC(O)(C(F)(F)F)Cn2nc3c(c2C1=O)CN(C(=O)Nc1ccc(F)c(Cl)c1)CC3 (centres unmarked) [Compound 226, N-(3-chloro-4-fluorophenyl)-4-hydroxy-2-methyl-1-oxo-4-(trifluoromethyl)-1,2,3,4,5,8,9,11-octahydro-10H-pyrido[4′,3′:3,4]pyrazolo[5,1-d][1,2,5]triazepine-10-carboxamide]
Second: CSCC1Cn2nc3c(c2C(=O)N(C)O1)CN(C(=O)Nc1ccc(F)c(Cl)c1)CC3 (centres unmarked) [Compound 048, N-(3-chloro-4-fluoro-phenyl)-2-methyl-4-(methylsulfanylmethyl)-1-oxo-5,8,9,11-tetrahydro-4H-pyrido[2,3]pyrazolo[2,4-d][1,2,5]oxadiazepine-10-carboxamide]
The EC50 of the first is higher: over 1000 nM for the first, 1 to 100 nM for the second. The second is the more potent here.

`CN1OC(CO)Cn2nc3c(c2C1=O)CN(C(=O)Nc1cc(F)c(F)c(F)c1)CC3` (centres unmarked) [Compound 006, 4-(hydroxymethyl)-2-methyl-1-oxo-N-(3,4,5-trifluorophenyl)-1,4,5,8,9,11-hexahydropyrido[4′,3′:3,4]pyrazolo[5,1-d][1,2,5]oxadiazepine-10(2H)-carboxamide] and `C[C@@H]1Cc2nn3c(c2CN1C(=O)Nc1cc(C(F)(F)F)ccc1F)C(=O)N(C)O[C@@H](CO)C3` (relative stereo) [Compound 157_D2, (4R*,9R)—N-[2-fluoro-5-(trifluoromethyl)phenyl]-4-(hydroxymethyl)-2,9-dimethyl-1-oxo-5,8,9,11-tetrahydro-4H-pyrido[2,3]pyrazolo[2,4-d][1,2,5]oxadiazepine-10-carboxamide] fall in the same range of EC50: 1 to 100 nM for the first, 1 to 100 nM for the second.

`C[C@@H]1Cc2nn3c(c2CN1C(=O)Nc1ccc(F)c(Br)c1)C(=O)N(C)N=C(CO)C3` [Compound 234, (R)-N-(3-bromo-4-fluorophenyl)-4-(hydroxymethyl)-2,9-dimethyl-1-oxo-1,2,5,8,9,11-hexahydro-10H-pyrido[4′,3′:3,4]pyrazolo[5,1-d][1,2,5]triazepine-10-carboxamide] and `C[C@@H]1Cc2nn3c(c2CN1C(=O)Nc1ccc(F)c(Br)c1)C(=O)N(C)OC(CNCC(F)F)C3` (stereo in doubt) [Compound 184_D1, (4S*,9R)—N-(3-bromo-4-fluorophenyl)-4-(((2,2-difluoroethyl)amino)methyl)-2,9-dimethyl-1-oxo-1,4,5,8,9,11-hexahydropyrido[4′,3′:3,4]pyrazolo[5,1-d][1,2,5]oxadiazepine-10(2H)-carboxamide] fall in the same range of EC50: 1 to 100 nM for the first, 1 to 100 nM for the second.

`C[C@@H]1Cc2nn3c(c2CN1C(=O)Nc1ccc(F)c(Cl)c1)C(=O)N(C)OC(CN(C)C)C3` (single isomer, unassigned) [Compound 093_D1, (4S*,9R)—N-(3-chloro-4-fluorophenyl)-4-((dimethylamino)methyl)-2,9-dimethyl-1-oxo-1,4,5,8,9,11-hexahydropyrido[4′,3′:3,4]pyrazolo[5,1-d][1,2,5]oxadiazepine-10(2H)-carboxamide] and `C[C@@H]1Cc2nn3c(c2CN1C(=O)Nc1ccc(F)c(C(F)(F)F)c1)C(=O)N(C)N(C)CC3` [Compound 225, (R)-N-(4-fluoro-3-(trifluoromethyl)phenyl)-2,3,9-trimethyl-1-oxo-1,2,3,4,5,8,9,11-octahydro-10H-pyrido[4′,3′:3,4]pyrazolo[5,1-d][1,2,5]triazepine-10-carboxamide] fall in the same range of EC50: 1 to 100 nM for the first, 1 to 100 nM for the second.

Same assay, conditions: Hepatitis B virus, HepG2.2.15, read-out: DNA EC50

For `CN1OC(CNC(=O)C(F)(F)F)Cn2nc3c(c2C1=O)CN(C(=O)Nc1ccc(F)c(Cl)c1)CC3` (centres unmarked) [Compound 163, N-(3-chloro-4-fluorophenyl)-2-methyl-1-oxo-4-((2,2,2-trifluoroacetamido)methyl)-1,4,5,8,9,11-hexahydropyrido[4′,3′:3,4]pyrazolo[5,1-d][1,2,5]oxadiazepine-10(2H)-carboxamide], the EC50 was 1 to 100 nM.
